Data published in patent US11339130B1 (Blade Therapeutics, Inc., priority 2016, dated 2022).

What was measured:
Format in all cases: biochemical
Human Calpain 2/NS1 = biological target: T1, Human Calpain 2/NS1 (Homo sapiens, UniProt P17655); assay: Calpain inhibition continuous fluorescence (FRET) assay, Human Calpain 2/NS1; conditions: Column B; read-out: Human Calpain 2/NS1 IC50
T1 sequence (P17655 1-700): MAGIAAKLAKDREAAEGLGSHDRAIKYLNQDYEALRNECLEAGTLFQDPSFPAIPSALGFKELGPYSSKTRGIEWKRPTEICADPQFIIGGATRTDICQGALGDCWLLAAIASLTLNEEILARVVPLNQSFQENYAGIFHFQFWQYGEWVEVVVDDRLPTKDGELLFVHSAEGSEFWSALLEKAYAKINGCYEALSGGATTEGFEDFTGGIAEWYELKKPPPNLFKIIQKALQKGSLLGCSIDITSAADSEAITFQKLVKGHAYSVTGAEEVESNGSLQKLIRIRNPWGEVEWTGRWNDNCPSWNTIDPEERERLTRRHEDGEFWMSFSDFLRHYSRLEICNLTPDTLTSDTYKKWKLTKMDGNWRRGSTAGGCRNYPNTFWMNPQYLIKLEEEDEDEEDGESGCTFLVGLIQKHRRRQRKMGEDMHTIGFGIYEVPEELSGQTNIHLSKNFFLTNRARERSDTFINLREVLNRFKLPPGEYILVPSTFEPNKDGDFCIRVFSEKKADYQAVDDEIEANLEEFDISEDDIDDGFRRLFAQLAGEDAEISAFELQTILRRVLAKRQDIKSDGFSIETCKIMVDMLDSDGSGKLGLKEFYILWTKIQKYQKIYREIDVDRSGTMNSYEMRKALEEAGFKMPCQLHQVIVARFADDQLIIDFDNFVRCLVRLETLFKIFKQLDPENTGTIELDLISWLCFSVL
T1 sequence (P04632 1-268 partner): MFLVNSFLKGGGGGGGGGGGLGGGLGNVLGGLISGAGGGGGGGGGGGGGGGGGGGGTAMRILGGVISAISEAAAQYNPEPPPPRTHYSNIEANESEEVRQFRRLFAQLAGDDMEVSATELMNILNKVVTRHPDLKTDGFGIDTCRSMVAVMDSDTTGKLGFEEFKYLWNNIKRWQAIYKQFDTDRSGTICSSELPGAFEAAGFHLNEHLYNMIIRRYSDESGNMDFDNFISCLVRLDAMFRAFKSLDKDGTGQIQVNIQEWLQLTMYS
Summary of the method: (§1)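 Buffer 50 mM Tris pH 7.5/100 mM NaCl/1 mM DTT; enzyme + cpd preinc 25C; start w/ FRET substrate + CaCl2; kinetic 490/520 nm, 10 min; slopes 1-5 min; 4-PL IC50.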

Human Calpain 9/NS1 = biological target: T2, Human Calpain 9/NS1 (Homo sapiens, UniProt O14815); assay: Calpain inhibition continuous fluorescence (FRET) assay, Human Calpain 9/NS1; conditions: Column C; read-out: Human Calpain 9/NS1 IC50
T2 sequence (O14815 1-690): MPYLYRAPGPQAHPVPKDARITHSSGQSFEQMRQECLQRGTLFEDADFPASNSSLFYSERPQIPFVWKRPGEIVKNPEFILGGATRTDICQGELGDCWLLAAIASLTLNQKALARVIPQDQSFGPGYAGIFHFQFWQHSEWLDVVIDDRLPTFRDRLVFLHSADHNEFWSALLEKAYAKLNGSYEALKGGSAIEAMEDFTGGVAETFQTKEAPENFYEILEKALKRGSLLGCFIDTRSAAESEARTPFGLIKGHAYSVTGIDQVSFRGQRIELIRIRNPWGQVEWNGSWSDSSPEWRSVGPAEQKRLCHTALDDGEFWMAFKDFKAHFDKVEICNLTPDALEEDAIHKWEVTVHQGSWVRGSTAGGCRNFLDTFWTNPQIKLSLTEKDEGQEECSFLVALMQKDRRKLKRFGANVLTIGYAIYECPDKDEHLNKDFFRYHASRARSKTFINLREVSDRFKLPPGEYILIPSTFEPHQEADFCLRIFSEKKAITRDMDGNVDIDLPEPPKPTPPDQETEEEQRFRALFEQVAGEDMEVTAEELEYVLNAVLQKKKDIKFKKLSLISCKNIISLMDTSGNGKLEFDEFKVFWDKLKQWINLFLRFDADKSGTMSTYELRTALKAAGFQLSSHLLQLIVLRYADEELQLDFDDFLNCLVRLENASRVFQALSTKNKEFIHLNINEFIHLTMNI
T2 sequence (P04632 1-268 partner): T1 sequence (P04632 1-268 partner)
Summary of the method: as §1

Human Calpain 1/NS1 = biological target: T3, Human Calpain 1/NS1 (Homo sapiens, UniProt P07384); assay: Calpain inhibition continuous fluorescence (FRET) assay, Human Calpain 1/NS1; conditions: Column A; read-out: Human Calpain 1/NS1 IC50
T3 sequence (P07384 1-714): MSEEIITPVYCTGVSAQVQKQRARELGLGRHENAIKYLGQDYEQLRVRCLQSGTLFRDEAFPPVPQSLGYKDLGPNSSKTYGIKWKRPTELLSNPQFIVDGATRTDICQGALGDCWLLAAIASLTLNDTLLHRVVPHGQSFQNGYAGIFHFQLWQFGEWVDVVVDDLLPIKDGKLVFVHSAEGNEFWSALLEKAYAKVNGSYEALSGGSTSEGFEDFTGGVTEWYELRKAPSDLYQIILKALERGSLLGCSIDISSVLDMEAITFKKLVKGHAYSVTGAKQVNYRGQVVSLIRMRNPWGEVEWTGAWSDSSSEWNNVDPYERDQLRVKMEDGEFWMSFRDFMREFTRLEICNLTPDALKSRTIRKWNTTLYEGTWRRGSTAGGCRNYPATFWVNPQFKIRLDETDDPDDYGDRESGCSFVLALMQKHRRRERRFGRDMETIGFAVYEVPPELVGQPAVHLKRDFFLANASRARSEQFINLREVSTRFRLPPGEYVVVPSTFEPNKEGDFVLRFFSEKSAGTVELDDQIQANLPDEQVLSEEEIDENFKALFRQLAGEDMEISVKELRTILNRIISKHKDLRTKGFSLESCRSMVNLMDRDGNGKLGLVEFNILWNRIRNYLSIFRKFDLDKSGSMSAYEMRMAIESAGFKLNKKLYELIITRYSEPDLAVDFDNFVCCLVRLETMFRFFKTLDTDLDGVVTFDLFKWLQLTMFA
T3 sequence (P04632 1-268 partner): T1 sequence (P04632 1-268 partner)
Summary of the method: as §1

Row | IC50 (Human Calpain 2/NS1) | IC50 (Human Calpain 9/NS1) | IC50 (Human Calpain 1/NS1) | SMILES
1 | < 3 µM | < 3 µM | < 3 µM | Cn1nnc(C(=O)N[C@@H](Cc2ccccc2)C(=O)C(N)=O)c1-c1ccccc1 [Compound 260, (S)—N-(4-amino-3,4-dioxo-1-phenylbutan-2-yl)-1-methyl-5-phenyl-1H-1,2,3-triazole-4-carboxamide]
2 | < 3 µM | < 3 µM | < 3 µM | Cn1nnc(-c2ccccc2)c1C(=O)N[C@@H](Cc1ccccc1)C(=O)C(N)=O [Compound 261, (S)—N-(4-amino-3,4-dioxo-1-phenylbutan-2-yl)-1-methyl-4-phenyl-1H-1,2,3-triazole-5-carboxamide]
3 | 3 to 10 µM | < 3 µM | 3 to 10 µM | NC(=O)C(=O)[C@H](Cc1ccccc1)NC(=O)c1nn[nH]c1-c1ccccc1 [Compound 262, (S)—N-(4-amino-3,4-dioxo-1-phenylbutan-2-yl)-5-phenyl-1H-1,2,3-triazole-4-carboxamide]
4 | < 3 µM | < 3 µM | < 3 µM | NC(=O)C(=O)[C@H](Cc1ccccc1)NC(=O)c1cnnn1-c1ccccc1 [Compound 263, (S)—N-(4-amino-3,4-dioxo-1-phenylbutan-2-yl)-1-phenyl-1H-1,2,3-triazole-5-carboxamide]
5 | 3 to 10 µM | > 10 µM | 3 to 10 µM | Cc1cc(C(=O)N[C@@H](Cc2ccccc2)C(=O)C(N)=O)nn1-c1nc2ccccc2[nH]1 [Compound 264, (S)—N-(4-amino-3,4-dioxo-1-phenylbutan-2-yl)-1-(1H-benzo[d]imidazol-2-yl)-5-methyl-1H-pyrazole-3-carboxamide]
6 | 3 to 10 µM | < 3 µM | 3 to 10 µM | Cn1cnc(C(=O)N[C@@H](Cc2ccccc2)C(=O)C(N)=O)c1-c1ccccc1 [Compound 269, (S)—N-(4-amino-3,4-dioxo-1-phenylbutan-2-yl)-1-methyl-5-phenyl-1H-imidazole-4-carboxamide]
7 | < 3 µM | < 3 µM | < 3 µM | NC(=O)C(=O)[C@H](Cc1ccccc1)NC(=O)c1ccsc1-c1ccccc1 [Compound 270, (S)—N-(4-amino-3,4-dioxo-1-phenylbutan-2-yl)-2-phenylthiophene-3-carboxamide]
8 | 3 to 10 µM | 3 to 10 µM | > 10 µM | N#Cc1cc(C(=O)N[C@@H](Cc2ccccc2)C(=O)C(N)=O)n(-c2ccccc2)n1 [Compound 272, (S)—N-(4-amino-3,4-dioxo-1-phenylbutan-2-yl)-3-cyano-1-phenyl-1H-pyrazole-5-carboxamide]
9 | < 3 µM | < 3 µM | > 10 µM | N#Cc1cc(C(=O)N[C@@H](Cc2ccccc2)C(=O)C(N)=O)nn1-c1ccccc1 [Compound 273, (S)—N-(4-amino-3,4-dioxo-1-phenylbutan-2-yl)-5-cyano-1-phenyl-1H-pyrazole-3-carboxamide]
10 | < 3 µM | < 3 µM | < 3 µM | Cn1nc(Br)c(C(=O)NC(Cc2ccccc2)C(=O)C(N)=O)c1Cl (stereo not drawn) [Compound 274, N-(4-amino-3,4-dioxo-1-phenylbutan-2-yl)-3-bromo-5-chloro-1-methyl-1H-pyrazole-4-carboxamide]
11 | < 3 µM | < 3 µM | < 3 µM | NC(=O)C(=O)C(Cc1ccccc1)NC(=O)c1c(Cl)cnn1-c1ccccc1 (stereo not drawn) [Compound 280, N-(4-amino-3,4-dioxo-1-phenylbutan-2-yl)-4-chloro-1-phenyl-1H-pyrazole-5-carboxamide]
12 | < 3 µM | < 3 µM | < 3 µM | NC(=O)C(=O)C(Cc1ccccc1)NC(=O)c1ccnn1Cc1ccccc1 (stereo not drawn) [Compound 283, N-(4-amino-3,4-dioxo-1-phenylbutan-2-yl)-1-benzyl-1H-pyrazole-5-carboxamide]
13 | > 10 µM | > 10 µM | > 10 µM | NC(=O)C(=O)C(Cc1ccccc1)NC(=O)c1ccn(Cc2ccccc2)n1 (stereo not drawn) [Compound 284, N-(4-amino-3,4-dioxo-1-phenylbutan-2-yl)-1-benzyl-1H-pyrazole-3-carboxamide]
14 | 3 to 10 µM | < 3 µM | < 3 µM | Cc1nc(-c2cccc(C(F)(F)F)n2)c(C(=O)NC(Cc2ccccc2)C(=O)C(N)=O)o1 (stereo not drawn) [Compound 287]
15 | < 3 µM | < 3 µM | < 3 µM | Cc1ncn(-c2ccccc2)c1C(=O)N[C@@H](Cc1ccccc1)C(=O)C(N)=O [Compound 290, (S)—N-(4-amino-3,4-dioxo-1-phenylbutan-2-yl)-4-methyl-1-phenyl-1H-imidazole-5-carboxamide]
16 | < 3 µM | < 3 µM | < 3 µM | NC(=O)C(=O)[C@H](Cc1ccccc1)NC(=O)c1c(Cl)ncn1-c1ccccc1 [Compound 291, (S)—N-(4-amino-3,4-dioxo-1-phenylbutan-2-yl)-4-chloro-1-phenyl-1H-imidazole-5-carboxamide]
17 | > 10 µM | > 10 µM | > 10 µM | Cc1cc(C(=O)N[C@@H](Cc2ccccc2)C(=O)C(=O)NC2CC2)n(-c2nc3ccccc3n2C)n1 [Compound 295, (S)—N-(4-(cyclopropylamino)-3,4-dioxo-1-phenylbutan-2-yl)-3-methyl-1-(1-methyl-1H-benzo[d]imidazol-2-yl)-1H-pyrazole-5-carboxamide]
18 | 3 to 10 µM | < 3 µM | > 10 µM | COc1ccc2nc(-n3nc(C)cc3C(=O)N[C@@H](Cc3ccccc3)C(=O)C(N)=O)sc2c1 [Compound 297, (S)—N-(4-amino-3,4-dioxo-1-phenylbutan-2-yl)-1-(6-methoxybenzo[d]thiazol-2-yl)-3-methyl-1H-pyrazole-5-carboxamide]
19 | > 10 µM | > 10 µM | > 10 µM | Cc1cc(C(=O)N[C@@H](Cc2ccccc2)C(=O)C(N)=O)n(-c2nc3c(C)cccc3s2)n1 [Compound 298, (S)—N-(4-amino-3,4-dioxo-1-phenylbutan-2-yl)-3-methyl-1-(4-methylbenzo[d]thiazol-2-yl)-1H-pyrazole-5-carboxamide]
